Like-named read-outs stand apart in the source and are kept apart here. Blank lines part the entries; values can stand above or below the molecule they belong to.
Experiments:
[1] = test system: AMPK; assay: AICAR-induced activation of AMPK in NRVMs; assay type: cell-based, rat; conditions: for activity of AMPK following AICAR, as determined by ACC phosphorylation: NRVMs pre-treated 4h, then AICAR 1 mM 1h
[2] = test system: NRVMs; assay: Rescue of sunitinib injury in NRVMs by AMPK activators; conditions: cells pre-treated with AICAR, then exposed to sunitinib
[3] = test system: Neonatal rat ventricular myocytes (NRVMs); assay: ATP content of cultured cardiomyocytes; assay type: cell-based
[4] = test system: Neonatal rat ventricular myocytes (NRVMs); assay: TUNEL staining of cultured cardiomyocytes; assay type: cell-based
[5] = test system: NRVMs; conditions: cited from earlier work
[6] = test system: AMPK; assay: Phospho-ACC immunoblot in NRVMs; assay type: cell-based, rat; conditions: sunitinib 1 μM, p < 0.01, n = 4
[7] = test system: C57Bl/6 mice; assay: Cardiomyocyte cross-sectional area on H&E-stained heart sections of treated mice; assay type: in vivo, mouse; conditions: 25 mg/kg/d, 5 weeks, p < 0.01 vs. vehicle, n = 4
[8] = test system: AMPK; assay: Phospho-ACC immunoblot of heart lysates of treated mice; assay type: in vivo, mouse; conditions: 25 mg/kg/d, 5 wks, p < 0.05 vs. control, n = 4 hearts
[9] = test system: RET; conditions: read-out: IC50 vs RET; known sunitinib target; cited from earlier work
[10] = biological target: CAMKK1 (Homo sapiens, UniProt Q8N5S9); assay: Recombinant biochemical kinase assay, sunitinib vs CAMKK1
[11] = test system: mitochondria; conditions: cited from earlier work
[12] = test system: C57Bl/6 mice; assay: Echocardiographic indices of sunitinib-treated mice; assay type: in vivo, mouse; conditions: 25 mg/kg/d in chow, 5 weeks, mean ± SD
[13] = test system: AMPK; assay: Phospho-AMPK; assay type: cell-based, rat; conditions: NRVMs, sunitinib 1 μM; p < 0.01 vs. control, n = 4
[14] = test system: Neonatal rat ventricular myocytes (NRVMs); assay: Mitochondrial membrane potential; assay type: cell-based; conditions: 1 μM sunitinib, 12h
[15] = test system: C57Bl/6 mice; assay: Myocardial capillary density; assay type: in vivo, mouse; conditions: 25 mg/kg/d, 5 weeks, isolectin B4, n = 3
[16] = test system: mTORC1; assay: Phospho-eEF2 immunoblot in NRVMs; assay type: cell-based, rat; conditions: sunitinib 1 μM, p < 0.01, n = 4
[17] = test system: patients; conditions: cited from earlier work
[18] = ref http://www.pfizer.com/files/products/uspi_sutent.pdf; cited from earlier work

Sequence of CAMKK1 (Q8N5S9 whole entry): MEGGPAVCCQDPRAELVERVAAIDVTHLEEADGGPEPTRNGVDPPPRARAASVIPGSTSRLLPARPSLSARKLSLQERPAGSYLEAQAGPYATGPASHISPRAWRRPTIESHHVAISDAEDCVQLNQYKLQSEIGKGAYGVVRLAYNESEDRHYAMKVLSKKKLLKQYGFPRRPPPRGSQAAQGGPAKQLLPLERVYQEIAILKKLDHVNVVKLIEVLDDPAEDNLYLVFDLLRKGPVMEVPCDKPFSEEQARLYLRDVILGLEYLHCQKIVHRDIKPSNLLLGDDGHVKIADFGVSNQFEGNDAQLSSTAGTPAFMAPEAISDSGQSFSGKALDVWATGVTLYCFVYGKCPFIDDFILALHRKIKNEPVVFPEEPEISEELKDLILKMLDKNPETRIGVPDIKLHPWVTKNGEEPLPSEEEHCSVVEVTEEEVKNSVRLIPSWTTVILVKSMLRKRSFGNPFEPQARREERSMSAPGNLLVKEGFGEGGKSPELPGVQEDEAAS

SMILES: NC(=O)c1ncn([C@@H]2O[C@H](CO)[C@@H](O)[C@H]2O)c1N [AICAR]
- AMPK signaling (phospho-ACC) in the setting of sunitinib ([1]; AICAR 1 mM 1h after sunitinib pre-treatment 4h): failed to increase AMPK signaling
- rescue of sunitinib toxicity by pre-treatment with the AMPK activator [2]: failed to rescue

- [ATP] in cardiomyocytes [3]: reduction in [ATP]
SMILES: c1cc(-c2cnn3cc(-c4ccc(OCCN5CCCCC5)cc4)cnc23)ccn1 [Compound C]
- activity of AMPK following AICAR, as determined by ACC phosphorylation [1]: Inhibition
- cardiomyocyte apoptosis (TUNEL) [4]: induced apoptosis

SMILES: CN(C)C(=N)N=C(N)N [metformin]
- reduction of sunitinib injury in NRVMs [5]: failed to reduce sunitinib injury

SMILES: CCN(CC)CCNC(=O)c1c(C)[nH]c(/C=C2\C(=O)Nc3ccc(F)cc32)c1C [sunitinib]
- phosphorylation of ACC1/2 [6]: significantly reduced
- cardiomyocyte size (cross-sectional area) on H & E-stained heart sections [7]: cardiomyocyte hypertrophy
- [ATP] in cardiomyocytes ([3]; 8h treatment, p < 0.05 vs. control): significantly reduced
- phosphorylation of ACC2 in the heart in vivo [8]: significantly reduced
- IC50 ([10]; IC50 vs CAMKK1 (range)): 4.5 to 6 µM
- IC50 ([10]; Mean IC50, recombinant biochemical kinase assays, two to seven sets of assays): 5.25 µM
- direct toxicity to mitochondria [11]: not directly toxic to mitochondria
- activity of AMPK following AICAR, as determined by ACC phosphorylation [1]: significantly reduced
- cardiomyocyte apoptosis (TUNEL) ([4]; 28 hrs treatment, p < 0.05 vs. control): induce cardiomyocyte apoptosis
- EF (ejection fraction) [12]: 52.5 ± 6.85%
- FS (fractional shortening) [12]: 31.3 ± 5.07%
- LVEDD (left ventricular end-diastolic dimension) [12]: 3.51 ± 0.18 mm
- LVPW (left ventricular posterior wall thickness) [12]: 0.86 ± 0.06 mm
- LVW/BW (left ventricular mass normalized to body weight) [12]: 4.49 ± 0.28 mg/g
- LVESD (left ventricular end-systolic dimension) ([12]; P < 0.05 versus vehicle): 2.41 ± 0.27 mm
- phosphorylation of AMPK at the activating site (T172) [13]: modest but consistent increase
- mitochondrial membrane potential (Δψm) [14]: loss of Δψm
- myocardial capillary density [15]: does not alter
- phosphorylation of eEF2 [16]: marked increase
- patients developing congestive heart failure (CHF) [17]: 8–15%
